In US20140171431A1, “AZOLE HETEROCYCLIC COMPOUND, PREPARATION METHOD, PHARMACEUTICAL COMPOSITION AND USE” (priority 2011, published 2014):
Like-named read-outs stand apart in the source and are kept apart here.

Key:
[1] = system: atherosclerotic plaque; details: diabetic/hypercholesterolemic swine, Wilensky et al.; cited from earlier work
[2] = molecular target: T1, Lp-PLA2 in rabbit serum (Oryctolagus cuniculus, UniProt G1SE06); assay: In vitro inhibitory activity towards the enzyme Lp-PLA2 in rabbit serum, [3H]PAF substrate; assay type: biochemical; details: 100 nM
T1 construct: from tissue; host or cells: rabbit serum
T1 sequence (G1SE06 22-423): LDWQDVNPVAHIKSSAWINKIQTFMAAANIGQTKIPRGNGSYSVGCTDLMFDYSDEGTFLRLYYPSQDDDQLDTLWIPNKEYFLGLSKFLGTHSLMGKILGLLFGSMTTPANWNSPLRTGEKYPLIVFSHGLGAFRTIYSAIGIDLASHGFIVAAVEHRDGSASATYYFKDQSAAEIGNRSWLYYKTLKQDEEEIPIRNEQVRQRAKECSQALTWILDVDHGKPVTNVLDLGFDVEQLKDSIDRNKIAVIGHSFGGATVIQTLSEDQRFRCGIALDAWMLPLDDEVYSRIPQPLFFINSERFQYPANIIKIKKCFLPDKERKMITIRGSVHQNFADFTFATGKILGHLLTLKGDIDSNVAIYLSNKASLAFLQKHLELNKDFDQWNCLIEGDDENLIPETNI

[3] = molecular target: T2, Lp-PLA2 in human serum (Homo sapiens, UniProt Q13093); assay: In vitro inhibitory activity towards the enzyme Lp-PLA2 in human serum, [3H]PAF substrate; assay type: biochemical; details: for inhibition at 0.01 µM: 10 nM; for inhibition at 0.1 µM: 100 nM
T2 construct: from tissue
T2 sequence (Q13093 22-441): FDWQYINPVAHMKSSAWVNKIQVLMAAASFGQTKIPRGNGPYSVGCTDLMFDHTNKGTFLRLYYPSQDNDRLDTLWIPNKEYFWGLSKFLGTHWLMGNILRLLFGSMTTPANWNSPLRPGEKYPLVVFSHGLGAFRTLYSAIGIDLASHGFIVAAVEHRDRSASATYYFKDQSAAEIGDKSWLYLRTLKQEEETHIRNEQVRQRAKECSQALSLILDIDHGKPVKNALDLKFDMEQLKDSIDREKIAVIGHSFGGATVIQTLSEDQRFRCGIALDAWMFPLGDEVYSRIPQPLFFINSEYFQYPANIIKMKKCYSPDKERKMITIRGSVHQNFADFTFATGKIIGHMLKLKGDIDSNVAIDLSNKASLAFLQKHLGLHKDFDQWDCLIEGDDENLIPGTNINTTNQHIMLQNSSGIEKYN
In short: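 Human plasma was preincubated with compound 10 min at 37 °C in 50 mM HEPES, 150 mM NaCl, pH 7.4. Reaction started with 20 nM [3H]PAF, run 10 min at 37 °C, then extracted with CHCl3/MeOH (2:1); radioactivity of the supernatant was counted.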

[4] = rabbit serum, read-out: inhibition, %
[5] = human serum, read-out: inhibition, %

Structure (SMILES)	inhibition at 0.1 µM [2, 4] [%]	inhibition at 0.01 µM [3, 5] [%]	inhibition at 0.1 µM ([3]; human serum) [%]	inhibition at 0.1 µM ([2]; read-out: inhibitory rate towards the rabbit serum derived Lp-PLA2 enzyme) [%]	inhibition at 0.01 µM ([3]; read-out: inhibitory rate towards the human serum derived Lp-PLA2 enzyme) [%]	atherosclerotic plaque progression [1]
CCN(CC)CCN(Cc1ccc(-c2ccc(C(F)(F)F)cc2)cc1)C(=O)Cn1c(SCc2ccc(F)cc2)nc(=O)c2c1CCC2 [darapladib, Darapladib]	–	–	–	–	–	remarkably reduced the atherosclerotic plaque progression
CN(Cc1nnc(Cn2c(SCc3ccc(F)cc3)nc(=O)c3c2CCC3)n1Cc1ccc(-c2ccc(C(F)(F)F)cc2)cc1)C1CC1 [Example 101, 1-((5-((cyclopropyl(methyl)amino)methyl)-4-((4′-(trifluoromethyl)biphenyl-4-yl)methyl)-4H-1,2,4-triazol-3-yl)methyl)-2-(4-fluorobenzylthio)-6,7-dihydro-1H-cyclopenta[d]pyrimidin-4(5H)-one]	86	77	96	–	–	–
CN(Cc1ccc(F)cc1)Cc1nnc(Cn2c(SCc3ccc(F)cc3)nc(=O)c3c2CCC3)n1Cc1ccc(-c2ccc(C(F)(F)F)cc2)cc1 [Example 81, 1-((5-(((4-fluorobenzyl)(methyl)amino)methyl)-4-((4′-(trifluoromethyl)biphenyl-4-yl)methyl)-4H-1,2,4-triazol-3-yl)methyl)-2-(4-fluorobenzylthio)-6,7-dihydro-1H-cyclopenta[d]pyrimidin-4(5H)-one]	90	93	98	> 90	> 80	–
O=c1nc(SCc2ccc(F)cc2)n(Cc2ncn(Cc3ccc(-c4ccc(C(F)(F)F)cc4)cc3)n2)c2c1CCC2 [Example 61, 2-(4-fluorobenzylthio)-1-((1-((4′-(trifluoromethyl)biphenyl-4-yl)methyl)-1H-1,2,4-triazol-3-yl)methyl)-6,7-dihydro-1H-cyclopenta[d]pyrimidin-4(5H)-one]	61	59	91	–	–	–
O=c1nc(SCc2ccc(F)cc2)n(Cc2nnc(CS(=O)(=O)Cc3ccccc3)n2Cc2ccc(-c3ccc(C(F)(F)F)cc3)cc2)c2c1CCC2 [Example 69, 1-((5-(benzylsulfonylmethyl)-4-((4′-(trifluoromethyl)biphenyl-4-yl)methyl)-4H-1,2,4-triazol-3-yl)methyl)-2-(4-fluorobenzylthio)-6,7-dihydro-1H-cyclopenta[d]pyrimidin-4(5H)-one]	89	87	97	–	–	–

More lines, main results first:

inhibition at 0.1 µM [2, 4] [%]	inhibition at 0.01 µM [3, 5] [%]	inhibition at 0.1 µM ([3]; human serum) [%]	inhibition at 0.1 µM ([2]; read-out: inhibitory rate towards the rabbit serum derived Lp-PLA2 enzyme) [%]	inhibition at 0.01 µM ([3]; read-out: inhibitory rate towards the human serum derived Lp-PLA2 enzyme) [%]	Structure (SMILES)	atherosclerotic plaque progression [1]
94	92	–	–	–	CCN(CC)CCNC(C)c1nnc(Cn2c(SCc3ccc(F)cc3)nc(=O)c3c2CCC3)n1Cc1ccc(-c2ccc(C(F)(F)F)cc2)cc1 (stereo not shown) [Example 130, 1-((5-(1-(2-(diethylamino)ethylamino)ethyl)-4-((4′-(trifluoromethyl)biphenyl-4-yl)methyl)-4H-1,2,4-triazol-3-yl)methyl)-2-(4-fluorobenzylthio)-6,7-dihydro-1H-cyclopenta[d]pyrimidin-4(5H)-one]	–
92	76	–	–	–	CCN(CC)CCOCc1nnc(Cn2c(SCc3ccc(F)cc3)nc(=O)c3c2CCC3)n1Cc1ccc(-c2ccc(C(F)(F)F)cc2)cc1 [Example 125, 1-((5-((2-(diethylamino)ethoxy)methyl)-4-((4′-(trifluoromethyl)biphenyl-4-yl)methyl)-4H-1,2,4-triazol-3-yl)methyl)-2-(4-fluorobenzylthio)-6,7-dihydro-1H-cyclopenta[d]pyrimidin-4(5H)-one]	–
